Test results published in patent publication US20050244335A1, “Methods and compositions related to increasing antitumor activity of chemotherapeutic agents” (priority 2004, published 2005).
Where two headings read alike, the source gives them in different places.

How the values were obtained:
[1] = test system: human lung cancer H1299 xenografts; experiment: In vivo chemotherapy, lung cancer H1299 xenograft model in nude mice
Excerpt: (§1) Cell Culture. […] All media contained 1% penicillin-streptomycin.
(§2) Data and Statistical Analysis.

[2] = test system: human breast cancer MCF-7 xenografts; experiment: In vivo chemotherapy, breast cancer MCF-7 xenograft model in nude mice; details: MCF-7 model
Excerpt: as §1, §2

[3] = test system: CD-1 mice
Procedure: sing a protocol similar to the above survival study, the effects of DEX on chemotherapy-induced bone marrow toxicity were studied in male CD-1 mice. DEX (s.c., 0.1 mg/mouse/day for 5 days) was given prior to (day −4-0) or after (day 0 to 4) a single i.p. dose of carboplatin (600 mg/m^2 or 200 mg/kg). On days −4, 0, 3, 7, 14, peripheral blood samples (60 μL) were obtained from postorbital venous plexus using a microcapillary tube coated with 5% ethylenediaminetetraacetic acid and cell counts were obtained using a Coulter counter. Wright's stained peripheral blood smears were examined by light microscopy and the percentage of lymphocytes, granulocytes and monocytes were recorded.
(§3) The significance of the differences among treated groups and controls were analyzed by ANOVA.
To examine possible mechanisms responsible for reduced mortality in mice pre-treated with DEX, peripheral blood counts before and after chemotherapy were determined. […] The same experimental design was used to examine the dose-schedule effects of dexamethasone prevention of neutropenia.

[4] = test system: NSCLC patients; experiment: Clinical trial of Dex pretreatment with carboplatin and gemcitabine in stage 4 NSCLC patients; assay type: in vivo, human; details: for AGC nadir ratio (course 2 ÷ course 1), M±SE: 4 days prior to and day of chemotherapy
Procedure: Patients were randomized at a 1:2:2 ratio to receive no Dex (Cohort 1), or Dex 8 mg bid (Cohort 2) or 16 mg bid (Cohort 3), 4 days prior to and the day of each chemotherapy treatment. Dex was given only in courses 2, 3, and 4 so that toxicities between course 1 vs. course 2 comparisons could be made.

[5] = test system: human lung cancer A549 xenografts; details: A549 model
Excerpt: as §1, §2

[6] = test system: CD-1 mice; assay type: in vivo; details: for survival rate: carboplatin 600 mg/m^2 (200 mg/kg) i.p., 14-day
Procedure: Male CD-1 mice, randomly divided into multiple treatment and control groups (10 mice/group), were given DEX by subcutaneous (s.c.) injection at doses of 0.01, 0.05, 0.1, 0.3 mg/mouse/day or saline (as controls) for 5 days prior to (day −4 to 0) or after (day 0 to 4) a single intraperitoneal (i.p.) injection of carboplatin (600 mg/m^2 or 200 mg/kg) on day 0. Animals were monitored daily for activity, physical condition, body weight and 14-day survival rates.
as §3

[7] = test system: human cancer xenografts; experiment: Six murine-human cancer xenograft models overall: efficacy and toxicity; details: all xenograft models tested
Procedure: (§4) Human cancer xenograft models were established using the methods reported previously (26-29). When confluence reached 80%, cultured LS174T, MCF-7, MDA-MB-468, U87-MG, A549 and H1299 cells were harvested from the monolayer cultures, washed with the above indicated serum-free medium and resuspended in the same medium with Matrigel® basement membrane matrix at a 3:1 ratio, and then injected subcutaneously (s.c.) (5×10^6 cells, total volume 0.2 mL) into the left inguinal area of the nude mice. The animals were monitored for activity, physical condition, determination of body weight, and measurement of tumor growth. Tumor growth was determined by caliper measurement in two perpendicular diameters of the implant every other day. Tumor weight (in g) was calculated by the formula, 1/2a×b^2 where “a” is the long diameter and “b” is the short diameter (in cm).
(§5) Nude mice bearing human cancer xenografts were randomly divided into various treatment and control groups (5 mice/group). In treatment groups, animals were pre-treated with DEX subcutaneously (s.c., 0.1 mg/day for 5 days, Day −4-0) or saline (as controls). Carboplatin was administered intraperitoneally (i.p.) at a single dose of 120 mg/kg (360 mg/m^2) on day 0.
(§6) The antitumor activity (tumor mass) and peripheral blood counts were expressed as mean and standard deviations and the significance of differences were analyzed by ANOVA.
(§7) When mean tumor mass reached 44-68 mg, animals were treated with s.c. DEX at a dose of 0.1 mg/day for 5 days, followed by chemotherapy.

[8] = test system: human glioma U87-MG xenografts; details: U87MG model
Procedure: Cell Culture. The cell lines of human cancers (colon LS174T, breast MCF-7 and MDA-MB-468, and lung A549) and glioma (U87-MG) were obtained from American Type Culture Collection (Rockville, Md.) and cultured according to their instruction. LS174T cells were cultured in modified Earle's medium with 0.1 mM nonessential amino acids and Earle's balanced salt solution containing 10% FBS. MCF-7 cells were grown in modified Earle's medium containing 10% FBS, 1 mM non-essential amino acids and Earle's balanced salt solution, 1 mM sodium pyruvate and 10 mg/L bovine insulin. MDA-MB-468 cells were grown in Dulbecco's modified Eagle's/F-12 Ham's medium (1:1 mixture) containing 10% FBS. […]
Animal Tumor Models. […] The animals were monitored for activity, physical condition, determination of body weight, and measurement of tumor growth. Tumor growth was determined by caliper measurement in two perpendicular diameters of the implant every other day. Tumor weight (in g) was calculated by the formula, 1/2a×b^2 where “a” is the long diameter and “b” is the short diameter (in cm). […]
Data and Statistical Analysis. The antitumor activity (tumor mass) and peripheral blood counts were expressed as mean and standard deviations and the significance of differences were analyzed by ANOVA. […]

[9] = test system: human cancer xenografts; details: in vivo
Procedure: as §4, §5, §6, §7

[10] = test system: human colon cancer LS174T xenografts; experiment: In vivo chemotherapy, colon cancer LS174T xenograft model in nude mice; details: DEX s.c. 0.1 mg/day 5 days, carboplatin 120 mg/kg i.p. day 0
Excerpt: as §1, §2

## C[C@@H]1C[C@H]2[C@@H]3CCC4=CC(=O)C=C[C@]4(C)[C@@]3(F)[C@@H](O)C[C@]2(C)[C@@]1(O)C(=O)CO [DEX, dexamethasone]
[1]
  increase of anticancer effects of carboplatin by DEX pretreatment: 70%
[2]
  increase of efficacy of carboplatin by DEX pretreatment: 66%
  increase of efficacy of gemcitabine by DEX pretreatment: 60%
[3]; CD-1 mice, DEX before carboplatin 360 mg/m^2
  optimal dose for prevention of neutropenia: 0.1 mg/kg
[3]; mouse, in vivo
  peripheral blood counts, effect of dexamethasone: induction of transient granulocytosis and lymphopenia
[4]; Cohort 2 (n=8), Dex 8 mg bid
  Responses: number of PD: 1
  Responses: number of PR: 7
[4]; Cohort 2: Dex 8 mg bid
  platelet nadir ratio (course 2 ÷ course 1), M±SE: 2.68±0.6
  AGC nadir ratio (course 2 ÷ course 1), M±SE: 2.68±0.8
[4]; Cohort 3 (n=10), Dex 16 mg bid
  Responses: number of PD: 1
  Responses: number of PR: 8
  Responses: number of SD: 1
[4]; Cohort 3: Dex 16 mg bid
  platelet nadir ratio (course 2 ÷ course 1), M±SE: 2.72±0.6
  AGC nadir ratio (course 2 ÷ course 1), M±SE: 2.94±0.7
[4]; Dex 16 mg
  reduction of toxicity, data trends: effective in reducing toxicity
[4]; NSCLC patients, Dex 8 or 16 mg bid
  Dex DLTs: No Dex DLTs were observed
[5]
  increase of therapeutic effectiveness of carboplatin by DEX pretreatment: 50%
  increase of therapeutic effectiveness of gemcitabine by DEX pretreatment: 60%
[6]; CD-1 mice, DEX alone s.c. 0.01-0.3 mg/mouse/day for 5 days
  death: No death occurred
[6]; CD-1 mice, DEX pretreatment 0.01 mg/mouse/day for 5 days
  survival rate: 40%
[6]; CD-1 mice, DEX pretreatment s.c. 0.1 mg/mouse/day for 5 days
  survival rate: 80%
[6]; combination treatment with carboplatin and gemcitabine, DEX pretreatment
  mortality of treated animals: reduced the mortality of treated animals
[7]
  increase of efficacy of carboplatin, gemcitabine or combination by DEX pretreatment: 2-4 fold
[8]
  increase of therapeutic effectiveness of combination therapy of carboplatin and gemcitabine by DEX pretreatment: 130%
[9]
  effect of DEX pretreatment on toxicity profiles of the two chemotherapeutic agents: no effect on toxicity profiles
[10]
  increase of therapeutic effect of carboplatin by DEX pretreatment: approximately 80%
